In test [1] the test system is pheochromocytoma cells (PC-12). Description: Survival of pheochromocytoma cells (PC-12) exposed to H2O2. Type of test: cell-based. The conditions noted are these: for survival rate: 0.1 mM H2O2 30 minutes. As for the experimental part:
Tests of survival of pheochromocytoma cells (PC-12) exposed to H2O2 and treated with L-carnitine or resveratrol or with the two products in combination
A culture of pheochromocytoma cells (PC-12) containing 3×10^5 N-cells/ml was exposed to 0.1 mM concentrations of H2O2 for 30 minutes. While the survival of the cells treated with H2O2 alone was approximately 45% after 24 hours, the survival of the cells treated with L-carnitine or with resveratrol was substantially greater, with survival rates of 55, 60 and 62%, respectively, for cells treated with L-carnitine, acetyl L-carnitine and propionyl L-carnitine at concentrations of 10^−8 M, and a survival rate of 69% for cells treated with resveratrol at the concentration of 10^−4 M.

The test system of test [2] is spontaneous motility of endothelin (ET-1)-treated mice. The experiment in a line: Spontaneous motility of mice reduced by intracerebral endothelin (ET-1). Type of test: in vivo. From the text:
One of the effects of a vasoactive peptide and neuromodulator such as endothelin is the influence it exerts on animal behaviour in reducing the animals' motility and vestibular reactions.
In these tests, we were able to observe that the typical action of endothelin (ET-1) injected intracerebrally in mice at the dose of 1 pmol/mouse, which is to substantially reduce the animals' spontaneous motility, can be inhibited to a very significant extent by prior administration of carnitines and resveratrol, and, particularly, that the combination of these two types of substances is capable of acting synergistically, restoring the motility reduced by endothelin administration almost to normal values.
The values were observed, keeping 10 mice at a time placed in a container with a photocell and an automatic movement counter; the count was done by observing the mice for periods of 5 minutes 15 minutes after the endothelin (ET-1) injection.

Test [3] has as its system sensory neuronal lesions induced by cisplatin. The class given is in vivo, mouse. Particulars: cisplatin-treated mice; 10 animals per group. As for the experimental part:
In these tests, cisplatin was used as a neuronal toxic factor, capable, particularly, of producing lesions in the sensory neurones and thus of impairing proprioceptive perception. The tests evaluated the ability of carnitines, resveratrol and combinations of these substances to restore peripheral sensory perception in the mouse impaired by injection of cisplatin. This ability was assessed by evaluating the reaction to thermal pain induced by a heated water solution in which the animals' tails were dipped according to the tail-flick test, or using the rotating bar test (Apfel S.C., Lipton R.B., Ann. Neurol., 29, 87-90, 1991).
Cisplatin was administered subcutaneously at the dose of 10 mg/kg for eight consecutive days. Over the same period the mice received injections of 100 mg/kg of carnitines and 2.5 mg/kg of resveratrol or combinations of these products.
The values observed, in fact, were 13.5 seconds in the animals treated with acetyl L-carnitine plus resveratrol and 14.4 seconds in those treated with propionyl L-carnitine plus resveratrol.

The mark [4] stands for this setting: carnitines 300 mg/kg intra-peritoneally for three days preceding and half an hour before ET-1 injection.

The text below walks through data of patent US6515020B1, “Combination of carnitines and resveratrol for prevention or treatment of cerebral and ageing disorders” (Sigma-Tau HealthScience S.p.A., priority 1998, dated 2003).

With `OO` [H2O2], the “survival of the cells” value in test [1] (0.1 mM H2O2 alone for 30 minutes, after 24 hours) is “approximately 45%”.
Regarding `C[N+](C)(C)C[C@H](O)CC(=O)[O-]` [L-carnitine], in test [2] (setting [4]), the motility reduction percentage is listed as 69.6%. Moreover, the survival rate in test [1] (carnitine at 10^−8 M) was determined as 55%.
The corresponding values for `CC(=O)O[C@H](CC(=O)[O-])C[N+](C)(C)C` [acetyl L-carnitine] are 65.5% and 60%.
Turning to `CC[C@H](C)[C@H](NC(=O)[C@H](CC(=O)O)NC(=O)[C@H](CC(C)C)NC(=O)[C@H](Cc1c[nH]cn1)NC(=O)[C@@H]1CSSC[C@H](N)C(=O)N[C@@H](CO)C(=O)N[C@H]2CSSC[C@H](NC(=O)[C@H](CCC(=O)O)NC(=O)[C@H](CCCCN)NC(=O)[C@H](CC(=O)O)NC(=O)[C@H](CCSC)NC(=O)[C@H](CC(C)C)NC(=O)[C@H](CO)NC(=O)[C@H](CO)NC2=O)C(=O)N[C@@H](C(C)C)C(=O)N[C@@H](Cc2ccc(O)cc2)C(=O)N[C@@H](Cc2ccccc2)C(=O)N1)C(=O)N[C@H](C(=O)N[C@@H](Cc1c[nH]c2ccccc12)C(=O)O)[C@@H](C)CC` [endothelin], the motility reduction percentage in test [2] (endothelin alone, 1 pmol/mouse intracerebrally, count for 5 minutes, 15 minutes after injection) is given as 85.5%.
For the molecule `CCC(=O)O[C@H](CC(=O)[O-])C[N+](C)(C)C` [propionyl L-carnitine], the motility reduction percentage in test [2] (setting [4]) was found to be 60.3%. The survival rate in test [1] (carnitine at 10^−8 M) came out at 62%.
Regarding `Oc1ccc(/C=C/c2cc(O)cc(O)c2)cc1` [resveratrol, trans-3,4′,5-trihydroxy-stilbene], in test [2] (alone, resveratrol 2.5 mg/kg, ET-1 treated mice), the motility reduction percentage is recorded as 60.4%. In test [3], the “increase in equilibrium time” value is reported as “significant increase”. Besides, the survival rate in test [1] (resveratrol at 10^−4 M) came out at 69%.
